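These data come from cells grown in 96-well plates and exposed to compound for 48 hours at five concentrations. GI50 = concentration required for 50% inhibition of growth.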 Active and inactive are the calls of the source. Rule as the data show it: active = GI50 up to about 1.1 µM and inactive = higher.
Key:
Assay in all cases: DTP human tumour cell line panel, 48 h
[1] = tested on: Malme-3M
[2] = tested on: A549
[3] = tested on: SW-620
[4] = tested on: SF-295
[5] = tested on: HCC 2998
[6] = tested on: HT-29
[7] = tested on: MDA-MB-231
[8] = tested on: M14
[9] = tested on: HCT-116
[10] = tested on: RPMI-8226
[11] = tested on: CCRF-CEM
[12] = tested on: BT-549
[13] = tested on: 786-0
[14] = tested on: SNB-19
[15] = tested on: PC-3
[16] = tested on: MOLT-4
[17] = tested on: NCI-H226
[18] = tested on: COLO 205
[19] = tested on: CAKI-1
[20] = tested on: OVCAR-3

Measured: GI50

CC(C)CC(NC(O)[BH2-][N+](C)(C)C)C(=O)NC(Cc1ccccc1)C(=O)N[C@H]1c2ccsc2/C(=N/O)[C@H]1O (some centres undefined)
inactive: [1] > 100 µM | [2] > 100 µM | [3] > 100 µM | [4] > 100 µM | [5] > 100 µM | [6] > 100 µM | [7] > 100 µM | [8] > 100 µM | [9] > 100 µM | [10] > 100 µM | [11] > 100 µM | [12] > 100 µM | [13] > 100 µM | [14] > 100 µM | [15] > 100 µM | [16] > 100 µM | [17] > 100 µM | [18] > 100 µM | [19] > 100 µM | [20] > 100 µM

COc1ccccc1NS(=O)(=O)c1ccc2ncn(NS(=O)(=O)c3ccc(Cl)cc3)c(=O)c2c1
inactive: [1] > 100 µM | [2] 75 µM | [3] > 100 µM | [4] 17.7 µM | [5] > 100 µM | [6] > 100 µM | [7] > 100 µM | [8] 5.86 µM | [9] > 100 µM | [10] 26.9 µM | [11] 54.7 µM | [12] > 100 µM | [13] > 100 µM | [14] > 100 µM | [15] 5.51 µM | [16] > 100 µM | [17] > 100 µM | [18] > 100 µM | [19] > 100 µM | [20] > 100 µM

COc1cccc(-c2nnc3c(-c4ccccc4)nc4ccccc4n23)c1
inactive: [1] 10.9 µM | [2] 21.2 µM | [3] 16.4 µM | [4] 35.6 µM | [5] 8.49 µM | [6] 19.2 µM | [7] 24.5 µM | [8] 29.5 µM | [9] 19.7 µM | [10] 3.45 µM | [11] 11.2 µM | [12] 35.9 µM | [13] 49.1 µM | [14] > 100 µM | [15] 16.4 µM | [16] 9.53 µM | [17] 57.3 µM | [18] 8.57 µM | [19] 33.6 µM | [20] 12.7 µM

O=c1[nH]c(=O)n(COCCO)c2ccsc12
inactive: [1] > 100 µM | [2] > 100 µM | [3] > 100 µM | [4] > 100 µM | [5] > 100 µM | [6] > 100 µM | [7] > 100 µM | [8] > 100 µM | [9] > 100 µM | [10] > 100 µM | [11] > 100 µM | [12] > 100 µM | [13] > 100 µM | [14] 32.4 µM | [15] > 100 µM | [16] > 100 µM | [17] > 100 µM | [18] > 100 µM | [19] > 100 µM | [20] > 100 µM

Cc1nn(C(=O)c2ccc(Cl)cc2)c2c1C(c1ccccc1)SC(=N)N2 (centres undefined)
inactive: [1] > 10 µM | [2] > 10 µM | [3] > 10 µM | [4] > 10 µM | [5] > 10 µM | [6] > 10 µM | [7] > 10 µM | [8] > 10 µM | [9] > 10 µM | [10] > 10 µM | [11] > 10 µM | [12] > 10 µM | [13] > 10 µM | [14] > 10 µM | [15] > 10 µM | [16] > 10 µM | [17] > 10 µM | [18] > 10 µM | [19] > 10 µM | [20] > 10 µM

CSc1c(C(=O)Nc2ccc(C)cc2)c(N)n(N)c(=O)c1C#N
inactive: [1] > 100 µM | [2] > 100 µM | [3] > 100 µM | [5] > 100 µM | [6] > 100 µM | [7] > 100 µM | [8] > 100 µM | [9] > 100 µM | [10] > 100 µM | [11] > 100 µM | [12] > 100 µM | [13] > 100 µM | [14] > 100 µM | [15] > 100 µM | [16] > 100 µM | [17] > 100 µM | [18] > 100 µM | [19] > 100 µM | [20] > 100 µM

COc1ccc(/C=C2\CCC(CNc3ccc(Br)cc3)C2=O)cc1 (centres undefined)
inactive: [1] > 100 µM | [2] 93.8 µM | [3] 67.3 µM | [4] > 100 µM | [5] 83.9 µM | [6] > 100 µM | [7] 53.3 µM | [8] 65.8 µM | [10] 5.87 µM | [11] 31.8 µM | [12] 88.7 µM | [13] > 100 µM | [14] > 100 µM | [15] > 100 µM | [16] 34.1 µM | [17] > 100 µM | [18] 81.8 µM | [19] > 100 µM | [20] > 100 µM

COC(=O)c1ccc(NCC2=CC(=O)C=CC2=O)cc1
inactive: [1] 4.55 µM | [2] 22.7 µM | [3] 3.75 µM | [5] 21.6 µM | [6] 17.9 µM | [7] 14.2 µM | [8] 4.06 µM | [9] 3.74 µM | [10] 2.59 µM | [11] 1.67 µM | [12] 13.6 µM | [13] 2.46 µM | [14] 14.8 µM | [15] 12.6 µM | [16] 3.05 µM | [17] 17.9 µM | [18] 2.69 µM | [19] 2.4 µM | [20] 1.79 µM

CC1=C(O)C(O)=C(C2=C(O)C(O)=C(C)C(=O)C2=O)C(=O)C1=O
inactive: [1] 20.8 µM | [3] 68.9 µM | [4] 31.3 µM | [5] 39.1 µM | [6] 59.3 µM | [7] 31.8 µM | [8] 38.5 µM | [9] 46.7 µM | [10] 34.3 µM | [11] 60 µM | [12] 31 µM | [13] 41.7 µM | [14] 50.5 µM | [15] 60.8 µM | [16] 98.2 µM | [17] 35.2 µM | [18] 40.7 µM | [19] 40.7 µM | [20] 30.8 µM

Cc1sc2nc3n(c(=O)c2c1C)N=C(c1ccc([N+](=O)[O-])cc1)CS3
inactive: [1] > 100 µM | [2] > 100 µM | [3] > 100 µM | [4] > 100 µM | [5] > 100 µM | [6] > 100 µM | [7] > 100 µM | [9] > 100 µM | [10] > 100 µM | [11] > 100 µM | [12] 56.5 µM | [13] > 100 µM | [15] > 100 µM | [16] > 100 µM | [17] > 100 µM | [18] > 100 µM | [19] > 100 µM | [20] > 100 µM
